Experiments:
Assay type in all cases: binding, mouse
antibody MDMA 2.1.1 = experiment: Cross-reactivity of antibody MDMA 2.1.1 with various drugs (ELISA cross-reactivity assay); conditions: antibody MDMA 2.1.1 (elicited by immunogen 12, T=KLH); ED50 of standard / ED50 of drug x 100; MDMA = 100
Protocol: In Table 1, the abbreviation d-AMP represents d-amphetamine, the abbreviation d-MAMP represents d-methamphetamine, the abbreviation l-AMP represents l-amphetamine, the abbreviation l-MAMP represents l-methamphetamine, and the abbreviation MDPA represents 3,4-methylenedioxy-N-propylamphetamine.
Microplates were coated with […] methylenedioxymethamphetamine-BSA conjugate 12 (T=BSA, 12b) at a concentration of 1 mg/mL, and separate microplates were coated with either 100 μL methamphetamine-BSA (MAMP-BSA) 28 at a concentration of 1 mg/mL or with 100 μL of amphetamine-BSA (AMP-BSA) 30 at a concentration of 1 mg/mL.
The plates were incubated covered for 1 hour at 37° C. (humidified). The plates were then emptied and filled with a post-coat solution consisting of Tris buffer, 1% gelatin hydrolysate, 2% sucrose, and 0.17% TWEEN 20. (All reagents were from Sigma Chemical Co.) The plates were incubated covered for an additional 1 hour at 37° C. (humidified), after which they were washed with phosphate-buffered saline containing 0.1% TWEEN 20. The plates were then filled with a 2% sucrose solution in 0.15 M Tris, pH 7.2–7.4, briefly, then emptied and allowed to air dry at room temperature. When dried, the plates were packed in ZIPLOC (Dow Chemical Co.) plastic bags containing several desiccant pillows, sealed, and stored at 4° C. until use.
For the primary screening of the growing clones from the fusion plates, only the MDMA-BSA 12 (T=BSA, 12b) coated plates were used. Fifty microliters of PBS was added to each well, followed by 50 μL of the sample of culture media from wells on the fusion plate, diluted 1:10 in PBS. The plates were incubated covered for 1 hour at 37° C., then washed with PBS-TWEEN (0.1%). The wells were then filled with 100 μL of goat anti-mouse IgG-HRP conjugate (Zymed Labs), diluted in PBS-TWEEN, and the plates re-incubated for 1 hour. The plates were then washed again and 100 μL of K-Blue Substrate (Neogen Corp.) added. This was allowed to develop for 5–15 minutes, the reaction being stopped by the addition of 100 μL of 1 N HCl. Color was read by means of a microplate reader at 450 nm and collected by computer for analysis. […] Cells were subjected to limiting dilution subcloning, and upon appearance of growth, were tested by a secondary screen.
(§1) Supernatants were subjected to serial dilutions and re-tested in the ELISA screen above. The dilution providing for about a 50% reduction from the maximum OD was chosen for proceeding to cross-reactivity testing. This comprised repeating the preceding assay with the antibody at the chosen dilution and in the presence of varying concentrations of drugs.

antibody NEAMP 48.2 = experiment: Cross-reactivity of NEAMP 48.2 with various drugs generated in a KIMS assay (ONLINE DAT II); conditions: antibody NEAMP 48.2 (immunogen 26, Q=KLH); KIMS immunoassay; MDEA as standard = 100
antibody NEAMP 62.1 = experiment: Cross-reactivity of NEAMP 62.1 with various drugs generated in a KIMS assay (ONLINE DAT II); conditions: antibody NEAMP 62.1 (immunogen 26, Q=KLH); KIMS immunoassay; MDEA as standard = 100
antibody NEAMP 1.3 = experiment: Cross-reactivity of NEAMP 1.3 with various drugs generated in an ELISA assay; conditions: antibody NEAMP 1.3 (immunogen 26, Q=KLH), MDEA as standard = 100
Protocol: Antibodies elicited by the immunogen 12, e.g., wherein T is KLH, show good response and specificity to ecstasy-class drugs. Furthermore, these antibodies show little or no cross-reactivity to related drugs. By determining the drug concentration that results in a 50% reduction in binding (ED50) of a standard, methamphetamine, dividing by the ED50 of each other drug, and then multiplying the result by 100, the percent cross-reactivity was calculated.
Tables 2, 3, and 4 show cross-reactivity data for the antibodies NEAMP 1.3, NEAMP 48.2, and NEAMP 62.1, which were generated in response to immunogen 26 of FIG. 2 wherein Q is KLH. By the procedure described above, using MDEA as a standard, the percent cross-reactivities shown in Tables 2, 3, and 4 were calculated.
Microplates were coated with 100 μL methamphetamine-BSA conjugate 28 (for screening for NEAMP 1.3) or 100 μL of MDEA-BSA conjugate 36 (for screening for NEAMP 48.2 and NEAMP 62.1), and separate microplates were coated with 100 μL N-ethylamphetamine-BSA 26 (Q=BSA, 26b) at 1 μg/mL in 0.1 M carbonate buffer, pH 9.5, for 1 hour at 37° C. (humidified). The plates were then emptied and filled with a post-coat solution containing Tris buffer, 1% gelatin hydrolysate, 2% sucrose, and 0.17% TWEEN 20. (All reagents were from Sigma Chemical Co.) The plates were incubated for an additional 1 hour at 37° C. (humidified), after which they were washed with phosphate-buffered saline containing 0.1% TWEEN 20. The plates were then filled with a 2% sucrose solution in 0.15 M Tris, pH 7.2–7.4, briefly, then emptied and allowed to air-dry at room temperature. When dried, the plates were packed in ZIPLOC bags containing several desiccant pillows, sealed, and stored at 4° C. until use.
When the growing clones were judged ready for testing, 25 μL of supernatant from the wells were taken and transferred to 96-well flexible plates. Culture medium was added to each well to provide a 1:10 dilution of the media sample. One hundred microliters of the diluted sample were transferred to each of the coated plates above. The plates were incubated covered for 1 hour at 37° C., then washed with PBS-TWEEN. The wells were then filled with 100 μL of goat anti-mouse IgG-HRP conjugate (Zymed Labs) diluted in PBS-TWEEN and the plates re-incubated for 1 hour. The plates were then washed again, and 100 μL of K Blue substrate (Neogen Corp) was added. This was allowed to develop for 5–15 minutes, the reaction being stopped by the addition of 100 μL of 1 N HCl. Color was read by means of a microplate reader at […] and collected by computer for analysis. A criterion for selection was binding to the methamphetamine-BSA conjugate 28 (for selection of NEAMP 1.3) or MDEA-BSA conjugate 36 (for screening for NEAMP 48.2 and NEAMP 62.1). Clones chosen were immediately subcloned and, when ready, retested. Stable subclones were expanded, frozen, and the spent media used to determine specificity using the cross-reactivity assay.
as §1

| SMILES | % Cross-reactivity (antibody MDMA 2.1.1) [%] | % Cross-reactivity (antibody NEAMP 48.2) [%] | % Cross-reactivity (antibody NEAMP 62.1) [%] | % Cross-reactivity (antibody NEAMP 1.3) [%] |
| --- | --- | --- | --- | --- |
| CCC(N)Cc1ccc2c(c1)OCO2 (centres unmarked) [BDB, 3,4-methylenedioxyphenyl-2-butanamine] | 20.5 | 1 | 46 |  |
| CCC(Cc1ccc2c(c1)OCO2)NC (centres unmarked) [MBDB, 3,4-methylenedioxyphenyl-N-methylbutanamine] | 26.1 | 6 | 13 | 3.9 |
| CC(N)Cc1ccc2c(c1)OCO2 (centres unmarked) [MDA, 3,4-methylenedioxyamphetamine] | 60.6 |  |  |  |
| CCNC(C)Cc1ccc2c(c1)OCO2 (centres unmarked) [MDEA, 3,4-methylenedioxy-N-ethylamphetamine] | 204 | 100 | 100 | 100 |
| CNC(C)Cc1ccc2c(c1)OCO2 (centres unmarked) [MDMA, 3,4-methylenedioxy-N-methylamphetamine] | 100 | 5 | 4.0 | 22.5 |
| CCCNC(C)Cc1ccc2c(c1)OCO2 (centres unmarked) [MDPA, 3,4-methylenedioxy-N-propylamphetamine] | 365 |  |  |  |
| CNCC(O)c1ccc(O)c(O)c1 (centres unmarked) [adrenaline] | 0 |  |  |  |
| C[C@H](N)Cc1ccccc1 [d-AMP, d-amphetamine] | 0 | 0 |  | 6.4 |
| CN[C@@H](C)Cc1ccccc1 [d-MAMP, d-methamphetamine] | 0.65 |  | 0.5 | 19.7 |
| CCNC(C)Cc1ccccc1 (stereo not drawn) [d-N-ethylamphetamine] |  | 130 | 11 |  |
| CN[C@@H](C)[C@@H](O)c1ccccc1 [d-pseudoephedrine] |  | 0.06 | 0.1 | 0.4 |
| CN[C@@H](C)[C@H](O)c1ccccc1 [ephedrine] | 0 |  |  |  |
| C[C@@H](N)Cc1ccccc1 [l-AMP, l-amphetamine] | 0 |  |  | 6.6 |
| CN[C@H](C)Cc1ccccc1 [l-MAMP, l-methamphetamine] | 0 | 0.5 | 0.2 |  |
| CN[C@@H](C)[C@H](O)c1ccccc1 [l-ephedrine] |  | 0 | 0.0 | 1.3 |
| NC[C@H](O)c1ccc(O)c(O)c1 [norepinephrine] | 0 |  |  |  |
| C[C@H]1[C@H](c2ccccc2)OCCN1C [phendimetrazine] |  | 0.04 | 0.1 | 0.12 |
| CC(C)(N)Cc1ccccc1 [phentermine] | 0 |  |  |  |
| CC(N)C(O)c1ccccc1 (centres unmarked) [phenylpropanolamine] | 0 |  |  |  |
| CN[C@@H](C)[C@@H](O)c1ccccc1 [pseudoephedrine] | 0 |  |  |  |
| c1cc2c(cc1[C@H]1OC[C@H]3[C@@H]1CO[C@@H]3c1ccc3c(c1)OCO3)OCO2 [sesamin] | 0 |  |  |  |
| NCCc1ccc(O)cc1 [tyramine] | 0 |  |  |  |
